The source of these data is BindingDB's records for doi:10.1016/S0960-894X(97)00421-6 (1997).

Sequence of Growth hormone secretagogue receptor type 1 (Rattus norvegicus) (O08725 whole entry, looked up): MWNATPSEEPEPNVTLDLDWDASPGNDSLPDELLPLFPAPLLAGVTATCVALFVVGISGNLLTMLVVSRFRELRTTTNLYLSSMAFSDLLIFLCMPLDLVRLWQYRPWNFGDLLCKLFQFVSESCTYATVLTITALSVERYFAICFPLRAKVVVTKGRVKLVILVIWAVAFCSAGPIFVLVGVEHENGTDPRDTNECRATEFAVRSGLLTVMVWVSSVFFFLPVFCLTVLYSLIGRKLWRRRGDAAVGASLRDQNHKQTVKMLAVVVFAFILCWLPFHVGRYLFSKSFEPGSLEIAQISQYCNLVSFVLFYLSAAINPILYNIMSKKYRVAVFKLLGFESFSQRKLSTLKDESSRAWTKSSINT

The assay concerns the target Growth hormone secretagogue receptor type 1 (Rattus norvegicus) (UniProt O08725). Put plainly: Ability to release growth hormone in a rat pituitary cell assay.
For orientation: EC50 means the concentration needed to bring the measured effect to its halfway point. Low values mean an effect from little substance, high ones a need for much substance. As to `CCOC(=O)C[C@@H]1CC2(CCN(C(=O)[C@@H](Cc3c[nH]c4ccccc34)NC(=O)C(C)(C)N)CC2)c2ccccc21`, the EC50 was 7 nM. As to `CC(C)(N)C(=O)N[C@@H](CCCc1ccccc1)C(=O)N1CCC2(CCc3ccccc32)CC1`, the EC50 is 10 nM. This EC50 and that of the compound before are within 1.5-fold of each other.

Take `CC(C)(N)C(=O)N[C@H](COCc1ccccc1)C(=O)N1CCC2(CC1)C[C@H](C(=O)O)c1ccccc12`: the midpoint of the response, the EC50, lay at 4.4 nM.

Take `CC(C)(N)C(=O)N[C@H](CCCc1ccccc1)C(=O)N1CCC2(CC1)CC(CCC(=O)O)c1ccccc12` (stereo partly drawn): a half-maximal response (EC50) required 2.5 nM. As to `CC(C)(N)C(=O)N[C@H](CCCc1ccccc1)C(=O)N1CCC2(CC1)C[C@H](C(=O)O)c1ccccc12`, the EC50 came to 2.1 nM. Next, `CCOC(=O)[C@H]1CC2(CCN(C(=O)[C@@H](CCCc3ccccc3)NC(=O)C(C)(C)N)CC2)c2ccccc21`: 1 nM; `CCOC(=O)CCC1CC2(CCN(C(=O)[C@@H](CCCc3ccccc3)NC(=O)C(C)(C)N)CC2)c2ccccc21` (stereo partly drawn): 1.3 nM. `CCOC(=O)[C@@H]1CC2(CCN(C(=O)[C@@H](Cc3c[nH]c4ccccc34)NC(=O)C(C)(C)N)CC2)c2ccccc21`: the EC50 was determined as 8.3 nM. In turn, `CC(C)(N)C(=O)N[C@H](CCCc1ccccc1)C(=O)N1CCC2(CC1)C[C@@H](CC(=O)O)c1ccccc12` had an EC50 of 1.9 nM. Consider `CC(C)(N)C(=O)N[C@H](COCc1ccccc1)C(=O)N1CCC2(CCc3ccccc32)CC1`, for which the EC50 was 17 nM. Next, `CC(C)(N)C(=O)N[C@H](CCCc1ccccc1)C(=O)N1CCC2(CC1)C[C@H](CC(=O)O)c1ccccc12`: 2.3 nM. Take `CCOC(=O)C[C@H]1CC2(CCN(C(=O)[C@@H](CCCc3ccccc3)NC(=O)C(C)(C)N)CC2)c2ccccc21`: it took 1 nM to reach a half-maximal effect (EC50). This EC50 lies about 2.3-fold lower than the previous one. To `CC(C)(N)CC(=O)N[C@@H]1CCc2ccccc2N(Cc2ccc(-c3ccccc3-c3nnn[nH]3)cc2)C1=O` [3-Amino-3-methyl-N-{2-oxo-1-[2'-(1H-tetrazol-5-yl)-biphenyl-4-ylmethyl]-2,3,4,5-tetrahydro-1H-benzo[b]azepin-3-yl}-butyramide] belongs 60 nM; to `CCOC(=O)C[C@H]1CC2(CCN(C(=O)[C@@H](Cc3c[nH]c4ccccc34)NC(=O)C(C)(C)N)CC2)c2ccccc21`, 28 nM; to `C[C@@H](O)CNC(C)(C)CC(=O)N[C@@H]1CCc2ccccc2N(Cc2ccc(-c3ccccc3-c3nnn[nH]3)cc2)C1=O` [L-692585], 3 nM. For `CCOC(=O)[C@@H]1CC2(CCN(C(=O)[C@@H](COCc3ccccc3)NC(=O)C(C)(C)N)CC2)c2ccccc21`, the concentration for a half-maximal effect (EC50) turned out to be 6.6 nM. For `CC(C)(N)C(=O)N[C@H](CCCc1ccccc1)C(=O)N1CCC2(CC1)C[C@@H](C(=O)O)c1ccccc12`, the EC50 is 2.5 nM. Next, `CCOC(=O)[C@H]1CC2(CCN(C(=O)[C@@H](COCc3ccccc3)NC(=O)C(C)(C)N)CC2)c2ccccc21`: 2.9 nM; `CCOC(=O)C[C@@H]1CC2(CCN(C(=O)[C@@H](CCCc3ccccc3)NC(=O)C(C)(C)N)CC2)c2ccccc21`: 0.8 nM. The compound `CC(C)(N)C(=O)N[C@H](Cc1c[nH]c2ccccc12)C(=O)N1CCC2(CCc3ccccc32)CC1` [L-162752] returned an EC50 of 14 nM. To `CC(C)(N)C(=O)N[C@H](Cc1c[nH]c2ccccc12)C(=O)N1CCC2(CC1)C[C@@H](CC(=O)O)c1ccccc12` belongs 5.8 nM; to `CCOC(=O)[C@H]1CC2(CCN(C(=O)[C@@H](Cc3c[nH]c4ccccc34)NC(=O)C(C)(C)N)CC2)c2ccccc21`, 6 nM; to `CCOC(=O)[C@@H]1CC2(CCN(C(=O)[C@@H](CCCc3ccccc3)NC(=O)C(C)(C)N)CC2)c2ccccc21`, 2 nM.
